According to the METLIN SMRT retention time set (Domingo-Almenara et al. 2019):

Test: gradient 5% acetonitrile 3 min, to 50% in 2 min, to 85% in 15 min, held 3 min, 100 µL/min
Details: column: Zorbax Extend-C18 2.1 x 50 mm; eluents: water / acetonitrile, 0.1% formic acid
How it was run: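 Over 3 months, pure standards in mixtures of ~100 molecules were run by HPLC coupled to a quadrupole time-of-flight mass spectrometer in positive and negative ionization mode. The column was a Zorbax Extend-C18 (2.1 × 50 mm, 1.8 μm) at 100 μL/min, eluted with water and acetonitrile each holding 0.1% formic acid, with 40 μL dead and 900 μL dwell volumes. Retention time was determined from adduct peaks chosen by software and checked manually.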

SMILES | RP-LC retention time [s]
CC(C)NC(=O)N1CCc2c(c(-c3nc(-c4ccccc4)no3)nn2C)C1 | 820
Cc1ccc(C(=O)N2CCC(COc3ccc(C(=O)NC(C)C)cc3)CC2)s1 | 888
Cc1nc(-c2csc(S(=O)(=O)N3CCC(C(=O)N4CCc5ccccc54)CC3)c2)no1 | 595
Cc1sc(C)c(S(=O)(=O)N2CCN(c3ccccn3)CC2)c1-c1cc(C(F)(F)F)on1 | 887
O=C(Nc1ccc(F)cc1Cl)c1c(O)c2cccnc2n(Cc2ccccc2)c1=O | 1240
COc1cc(OC)c(OC)cc1/C=C\c1ccnc2ccccc12 | 679
O=C1CCc2cc(NC(=O)C3CC3)ccc2N1 | 599
CC(C)c1nnc2n1CCN(C(=O)c1ccc(Cl)s1)C2 | 661
O=c1c(S(=O)(=O)N2CCCC2)cccn1Cc1ccccc1Cl | 860
COc1ccc(-c2cn3ccn(-c4ccc(F)c(Cl)c4)c(=O)c3n2)cc1 | 862
Cc1ccc(-n2nnnc2CNC(=O)Nc2ccc(Cl)c(Cl)c2)cc1C | 944
Cc1cc(C)cc(C(=O)N2CCC(c3nc4ccncc4n3C)C2)c1 (stereo not drawn) | 547
CC(C)(C)NC(=O)CN1CCC(c2nc(-c3ccc(F)cc3)no2)CC1 | 675
COCCNc1c(-c2ccc(F)cc2)nc2sc(C(=O)NCc3cccnc3)c(C)n12 | 631
COc1ccc(Cl)c2c(=O)c3c([nH]c12)CCN(CC(=O)NCc1ccc(F)cc1)C3 | 612
O=C(c1cccnc1)N1CCC(n2c(-c3ccsc3)nc3cccnc32)C1 (stereo not drawn) | 576
Cc1ccc(-c2nnc(N3CCC(C(=O)N4CCN(CC(C)C)CC4)CC3)o2)cc1 | 639
O=C(C1=CN(c2ccc(Cl)cc2)c2ccccc2S1(=O)=O)N1CCCC1 | 827
O=C(CSc1nnc2c3cc(-c4ccc(F)cc4)nn3ccn12)NCc1ccco1 | 787
Cc1ncc2c(SCC(=O)Nc3ccc(Br)cc3)ncnc2n1 | 578
Cc1oc(-c2ccccc2)nc1Cn1ccn2nc(-c3cccs3)cc2c1=O | 1060
C=CCn1nc2ccc(S(=O)(=O)N3CCSCC3)cn2c1=O | 744
O=C(Cn1cnc2nc(N3CCC(C(=O)NC4CC4)CC3)sc2c1=O)NCc1ccc(F)cc1 | 655

SMILES | RP-LC retention time [s]
Cc1cc(C)c(S(=O)(=O)N2CCC(c3noc(-c4ccccc4C)n3)CC2)c(C)c1 | 1430
Cn1c(N2CCN(C(=O)c3c(F)cccc3F)CC2)cc(=O)n(C)c1=O | 648
Cc1ccc(S(=O)(=O)N2CCc3nc[nH]c3C2)cc1Cl | 642
O=C(NC1CCN(c2cc(-c3ccc(Cl)cc3)[nH]n2)C1)c1ccccn1 (stereo not drawn) | 751
CCC(C)NC(=O)c1c(C)oc2ccn(Cc3ccc(F)cc3)c(=O)c12 (stereo not drawn) | 1040
CC(C)NC(=O)C1CCN(c2nc3ccc(-c4ccccc4F)nc3s2)CC1 | 915
COC(=O)c1ccc(CSc2nnc(NC(=O)c3nc4ccccc4s3)s2)o1 | 904
O=C(Cn1c(CN2CCCCCC2)nc2ccccc21)N1CCCCC1 | 662
COc1cccc(C2Cn3nnc(-c4nc(-c5cccc(C(F)(F)F)c5)no4)c3CO2)c1 (stereo not drawn) | 1270
Cc1ccc(Cl)cc1NC(=O)C(=O)c1cccn1C | 878
CCOc1ccc(-c2noc(Cc3nnc(-c4ccc(C)c(F)c4)o3)n2)cc1 | 1140
CCOC(=O)CNC(=O)N1CCN(Cc2nc3cccnc3n2-c2ccc(F)cc2)CC1 | 602
NC(=O)c1cc(Br)cc(C2CCCCC2)c1O | 1220
CCCC(=O)N1CCc2c(c(C(=O)N3CCCC(C(=O)Nc4ccccc4C)C3)nn2C)C1 (stereo not drawn) | 759
O=C(NCCc1ccsc1)C(=O)Nc1cccc(N2CCCCC2=O)c1 | 719
CN(CCc1noc(-c2ccc(F)cc2)n1)C(=O)Nc1ccccc1Cl | 983
O=C1[C@H]2CN(Cc3cc(Br)ccc3F)C[C@H]2C(=O)N1CCc1ccccc1 | 1030
CCc1noc(C2CCCCN2Cc2cc(F)ccc2F)n1 (stereo not drawn) | 939
CN(C1CCCCC1)S(=O)(=O)c1ccc(NC(=O)c2ccco2)cc1 | 883
CCC(=O)N(C1CCOCC1)C1CCN(S(=O)(=O)c2cc(F)cc(F)c2)CC1 | 856
COCCNC(=O)NCc1ccc2c(c1)N(C(=O)c1ccccc1)CC2 | 696
COc1ccccc1NC(=O)Nc1nc(CC(=O)N2CCC(C(N)=O)CC2)cs1 | 640
COCCNC(=O)Nc1nc(-c2ccccc2)c(C(C)=O)s1 | 685

SMILES | RP-LC retention time [s]
O=S(=O)(Cc1ccccc1)N1CCC2(CCCCO2)CC1 | 868
COCC(=O)NC1CCC12CCN(C(=O)CCC1CCCC1)CC2 (stereo not drawn) | 735
CCOC(=O)c1cccc(NS(=O)(=O)c2cc(-c3c(CC)noc3NC(C)=O)ccc2OC)c1 | 814
O=C(c1ccccc1F)N1CCC(CNS(=O)(=O)c2ccc(C(F)(F)F)cc2)CC1 | 847
CC1=C(c2ccc(C)c(C)c2)S(=O)(=O)N=C1N1CCCN(C(=O)c2cccs2)CC1 | 874
Cc1scc2nc(C(=O)NCc3ccc(F)cc3)nc(N(C)C)c12 | 780
Cn1cnc(S(=O)(=O)N2[C@H]3CC[C@@H]2c2cnc(-c4ccc(F)cc4)nc2C3)c1 | 764
Cn1c(N2CCCC(C(=O)NCCC3=CCCCC3)C2)cc(=O)n(C)c1=O (stereo not drawn) | 754
CC(=O)Nc1ccc(-n2cnc(C(=O)N3CCN(c4ccc(F)cc4)CC3)c2)nc1 | 688
Cc1cc(C(=O)N2CC(N(C(=O)NC(C)C)C3CCOCC3)C2)nn1C | 576
COc1ccc(NC(=O)c2cc3c(=O)n(CC(C)C)c4ccccc4n3n2)cc1OC | 910
O=C(c1cccc(-n2cnnn2)c1)N1CC(c2nc(-c3ccccn3)no2)C1 | 648
O=C(NCc1nc(-c2cccs2)no1)c1ccc(Br)cc1 | 892
CCCN(C)c1nccnc1OC1CCN(C(=O)C2CC2)C1 (stereo not drawn) | 724
COc1ccc(OC)c(-c2csc(-c3nnn(-c4ccccc4)c3N)n2)c1 | 1080
Cn1c(=O)n([C@H]2CCN(C(=O)C3CC3)C2)c2ncccc21 | 639
O=C(CC1CCCC1)Nc1cnc(-c2ccccc2)nc1 | 990
CCN(CC)CCn1c(NCc2ccccc2OC)nc2ccccc21 | 1130
Cc1ccn2cc(CCNC(=O)c3ccc(C(F)(F)F)cc3)nc2c1 | 580
COC(=O)c1cccc(NS(=O)(=O)c2cn(CC(C)C)c3ncccc23)c1 | 913
COCC(C)(O)CNC(=O)Nc1cccs1 (stereo not drawn) | 594
CCN1CCCC1CN(CC(=O)N1CCNCC1)S(=O)(=O)c1cc(Cl)ccc1OC (stereo not drawn) | 573
